Source: ChEMBL document CHEMBL1201862, “PubChem BioAssay data set” (2004)
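Method: 48-hour compound exposure of cells in 96-well plates, five concentrations, linear interpolation of endpoints. GI50 marks 50% less growth.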 Active and inactive are the calls of the source. Rule as the data show it: active = GI50 up to about 1.1 µM and inactive = higher.

Columns and labels:
Assay in all cases: DTP human tumour cell line panel, 48 h
RXF 393 = test system: RXF 393
SK-MEL-5 = test system: SK-MEL-5
SF-295 = test system: SF-295
SNB-19 = test system: SNB-19
U-251 = test system: U-251
OVCAR-4 = test system: OVCAR-4
KM-20L2 = test system: KM-20L2
HT-29 = test system: HT-29
A549 = test system: A549
OVCAR-5 = test system: OVCAR-5
SN12C = test system: SN12C
DLD-1 = test system: DLD-1
SW-620 = test system: SW-620
OVCAR-3 = test system: OVCAR-3
SNB-78 = test system: SNB-78
SK-MEL-2 = test system: SK-MEL-2
DU-145 = test system: DU-145
RPMI-8226 = test system: RPMI-8226
MDA-MB-231 = test system: MDA-MB-231
T47D = test system: T47D

Row | Structure (SMILES) | GI50 (RXF 393) | GI50 (SK-MEL-5) | GI50 (SF-295) | GI50 (SNB-19) | GI50 (U-251) | GI50 (OVCAR-4) | GI50 (KM-20L2) | GI50 (HT-29) | GI50 (A549) | GI50 (OVCAR-5) | GI50 (SN12C) | GI50 (DLD-1) | GI50 (SW-620) | GI50 (OVCAR-3) | GI50 (SNB-78) | GI50 (SK-MEL-2) | GI50 (DU-145) | GI50 (RPMI-8226) | GI50 (MDA-MB-231) | GI50 (T47D)
1 | Cc1cc(NS(=O)(=O)c2ccc(Nc3c4ccccc4nc4c(C(=O)NCCN(C)C)ccc(Cl)c34)cc2)no1 | 7.6 µM (inactive) | 2 µM (inactive) | 3.8 µM (inactive) | 2.67 µM (inactive) | 2.42 µM (inactive) | 4.09 µM (inactive) | 11 µM (inactive) | 2.86 µM (inactive) | 3.66 µM (inactive) | 15.1 µM (inactive) | 3.88 µM (inactive) | 3.94 µM (inactive) | 1.92 µM (inactive) | 11.7 µM (inactive) | 10.7 µM (inactive) | 6.1 µM (inactive) | – | – | – | –
2 | O=C1CCCC/C1=C/C=C/c1ccccc1 | 47.4 µM (inactive) | 41.2 µM (inactive) | 48.6 µM (inactive) | > 100 µM (inactive) | 83 µM (inactive) | 63.8 µM (inactive) | 68.1 µM (inactive) | 49.3 µM (inactive) | 52.5 µM (inactive) | > 100 µM (inactive) | > 100 µM (inactive) | 46.9 µM (inactive) | 41.6 µM (inactive) | 66.4 µM (inactive) | – | > 100 µM (inactive) | 64.6 µM (inactive) | 32.5 µM (inactive) | – | –
3 | CCCCCCCCCCNCCSSCc1ccc(Cl)cc1 | 3.3 µM (inactive) | 0.509 µM (active) | 1.91 µM (inactive) | 1.71 µM (inactive) | 3.27 µM (inactive) | 1.71 µM (inactive) | 1.36 µM (inactive) | 1.77 µM (inactive) | 1.85 µM (inactive) | 1.91 µM (inactive) | 1.91 µM (inactive) | 2.07 µM (inactive) | 1.6 µM (inactive) | 1.96 µM (inactive) | – | 0.352 µM (active) | – | – | – | –
4 | CN(N=O)c1nc2c(C(N)=O)ncn2s1 | > 100 µM (inactive) | > 100 µM (inactive) | 68.2 µM (inactive) | > 100 µM (inactive) | > 100 µM (inactive) | 47.9 µM (inactive) | – | > 100 µM (inactive) | > 100 µM (inactive) | > 100 µM (inactive) | 97.7 µM (inactive) | – | 46.9 µM (inactive) | 87.1 µM (inactive) | – | 35.8 µM (inactive) | 20 µM (inactive) | 45 µM (inactive) | 36.3 µM (inactive) | > 100 µM (inactive)
5 | Cc1ccc(N/N=C2\C3=C(CCC(C)(C)O3)C(=O)c3ccccc32)cc1 | 32.4 µM (inactive) | 4.17 µM (inactive) | 14.7 µM (inactive) | 20.8 µM (inactive) | 37.5 µM (inactive) | 18.2 µM (inactive) | – | 18.8 µM (inactive) | 16 µM (inactive) | 18.4 µM (inactive) | 14.6 µM (inactive) | – | 33.8 µM (inactive) | 24.2 µM (inactive) | – | 18.9 µM (inactive) | 12.4 µM (inactive) | 26.5 µM (inactive) | 56.1 µM (inactive) | 18.2 µM (inactive)
6 | Cc1ccc(C2=C(c3ccccc3)C(O)(c3ccc(C)cc3)C(c3ccccc3)=C2c2ccc(C)cc2)cc1 | – | > 100 µM (inactive) | > 100 µM (inactive) | > 100 µM (inactive) | > 100 µM (inactive) | > 100 µM (inactive) | > 100 µM (inactive) | – | > 100 µM (inactive) | > 100 µM (inactive) | > 100 µM (inactive) | > 100 µM (inactive) | > 100 µM (inactive) | 69 µM (inactive) | > 100 µM (inactive) | > 100 µM (inactive) | – | 54.6 µM (inactive) | – | –
7 | O/N=C1/C(=C/c2ccc(Br)cc2)CCCC1C(NO)c1ccc(Br)cc1 (configuration not stated) | 15.6 µM (inactive) | – | 16.7 µM (inactive) | 15.8 µM (inactive) | 18.9 µM (inactive) | 10.4 µM (inactive) | 17.3 µM (inactive) | 18.3 µM (inactive) | 15.4 µM (inactive) | 11.4 µM (inactive) | 12.4 µM (inactive) | – | 20.4 µM (inactive) | 17.4 µM (inactive) | 13.4 µM (inactive) | 16.7 µM (inactive) | – | 17.8 µM (inactive) | – | –
8 | CC1=C(/C(C)=N/NC(=O)c2ccccc2O)C(C)C(/C(C)=N/NC(=O)c2ccccc2O)=C(C)N1 | 4.73 µM (inactive) | 19.8 µM (inactive) | – | 30.5 µM (inactive) | 28.7 µM (inactive) | 11.5 µM (inactive) | 33.3 µM (inactive) | 42.3 µM (inactive) | 21.5 µM (inactive) | 24.2 µM (inactive) | 45.1 µM (inactive) | 27.9 µM (inactive) | 33.6 µM (inactive) | 12.2 µM (inactive) | 40.6 µM (inactive) | – | – | – | – | –
9 | NC(Cc1ccccc1)C(=O)OCN1C(=O)C2C3C=CC(C2C1=O)C1C2C(=O)N(COC(=O)C(N)Cc4ccccc4)C(=O)C2C31 (configuration not stated) | 22.5 µM (inactive) | 18.3 µM (inactive) | 48 µM (inactive) | 50.1 µM (inactive) | 20.7 µM (inactive) | 18.3 µM (inactive) | 28.4 µM (inactive) | 33.2 µM (inactive) | 25.9 µM (inactive) | 47 µM (inactive) | 22.3 µM (inactive) | 23 µM (inactive) | 19.5 µM (inactive) | 33 µM (inactive) | – | – | – | 27.2 µM (inactive) | – | –
10 | Cc1ccc(C(=O)/C=C/c2ccccc2Cl)cc1 | – | 20.9 µM (inactive) | 19.2 µM (inactive) | 18.4 µM (inactive) | 14.7 µM (inactive) | 17.1 µM (inactive) | 16.7 µM (inactive) | 15.8 µM (inactive) | 33.7 µM (inactive) | 17.1 µM (inactive) | 20.6 µM (inactive) | 19.8 µM (inactive) | 13.6 µM (inactive) | 17.3 µM (inactive) | 21.7 µM (inactive) | – | – | 15.8 µM (inactive) | – | –
11 | CCOc1ccc(NC(=O)C(=O)CC(=O)C2=C(C)Nc3ccccc3S2)cc1 | > 50 µM (inactive) | > 50 µM (inactive) | > 50 µM (inactive) | > 50 µM (inactive) | > 50 µM (inactive) | > 50 µM (inactive) | > 50 µM (inactive) | > 50 µM (inactive) | > 50 µM (inactive) | > 50 µM (inactive) | > 50 µM (inactive) | > 50 µM (inactive) | > 50 µM (inactive) | > 50 µM (inactive) | – | > 50 µM (inactive) | – | > 50 µM (inactive) | – | –
12 | COc1oc(C2C/C(=C/C(C)=C/C(C)=C/C(C)=C/c3ccc([N+](=O)[O-])cc3)CO2)c(C)c(=O)c1C (configuration not stated) | 17.9 µM (inactive) | < 0.01 µM (active) | 2.47 µM (inactive) | 15.9 µM (inactive) | 6.27 µM (inactive) | 3.5 µM (inactive) | – | 3.14 µM (inactive) | 1.74 µM (inactive) | 47.4 µM (inactive) | 2.57 µM (inactive) | – | 9.1 µM (inactive) | 11.1 µM (inactive) | – | 23.9 µM (inactive) | 8.2 µM (inactive) | 0.55 µM (active) | 15.8 µM (inactive) | 1.04 µM (active)
13 | C/C(C[n+]1ccccc1)=N\N=C(N)N | > 100 µM (inactive) | > 100 µM (inactive) | > 100 µM (inactive) | > 100 µM (inactive) | > 100 µM (inactive) | > 100 µM (inactive) | – | > 100 µM (inactive) | > 100 µM (inactive) | > 100 µM (inactive) | > 100 µM (inactive) | – | > 100 µM (inactive) | > 100 µM (inactive) | – | 73.8 µM (inactive) | > 100 µM (inactive) | > 100 µM (inactive) | > 100 µM (inactive) | > 100 µM (inactive)
14 | CC(C)(C)C(=O)N1C(C(=O)O)Cc2ccccc2[C@@H]1Cc1ccccc1 (some centres not stated) | > 100 µM (inactive) | > 100 µM (inactive) | > 100 µM (inactive) | > 100 µM (inactive) | > 100 µM (inactive) | > 100 µM (inactive) | > 100 µM (inactive) | > 100 µM (inactive) | > 100 µM (inactive) | > 100 µM (inactive) | > 100 µM (inactive) | – | > 100 µM (inactive) | > 100 µM (inactive) | > 100 µM (inactive) | > 100 µM (inactive) | – | > 100 µM (inactive) | – | –
15 | Cn1c(=O)nc2n(-c3cccc(Cl)c3)c3ccccc3nc-2c1=O | 21.5 µM (inactive) | 10.5 µM (inactive) | 16.6 µM (inactive) | > 10 µM (inactive) | 15.3 µM (inactive) | 11.6 µM (inactive) | 5.92 µM (inactive) | 4.53 µM (inactive) | 11.4 µM (inactive) | 22.5 µM (inactive) | 12.8 µM (inactive) | – | 11.2 µM (inactive) | 2.45 µM (inactive) | 23.7 µM (inactive) | 17.1 µM (inactive) | – | 15.5 µM (inactive) | – | –
16 | CCCCCCCCCCCCCCCCCCOCC(C[N+]1(C)CCC(O)CC1)OCC (configuration not stated) | – | – | 4.68 µM (inactive) | 6.73 µM (inactive) | – | 4.1 µM (inactive) | – | 3.37 µM (inactive) | 5.87 µM (inactive) | – | 4.06 µM (inactive) | 11.8 µM (inactive) | 5.48 µM (inactive) | 3.85 µM (inactive) | 3.18 µM (inactive) | 4.3 µM (inactive) | – | 2.77 µM (inactive) | – | –
17 | NC(CP(=O)(O)O)C(=O)O (configuration not stated) | > 100 µM (inactive) | > 100 µM (inactive) | > 100 µM (inactive) | > 100 µM (inactive) | > 100 µM (inactive) | > 100 µM (inactive) | – | > 100 µM (inactive) | > 100 µM (inactive) | > 100 µM (inactive) | > 100 µM (inactive) | – | > 100 µM (inactive) | > 100 µM (inactive) | – | > 100 µM (inactive) | > 100 µM (inactive) | > 100 µM (inactive) | > 100 µM (inactive) | > 100 µM (inactive)
